Values of other authors in patent publication US6350369B1, “Method and system for determining analyte activity” (California Institute of Technology, priority 1998, dated 2002).

System: cytochrome P-450
Conditions: cytochrome P-450 aniline p-hydroxylation inhibition, in words

inhibitory activity compared with QSAR prediction: higher activity than is predicted
Compound: OCc1ccccc1 [benzyl alcohol]
